Here are results for 39 compounds from patent publication US4268510A, “1,3-Benzoxazine trichloromethyl derivatives, compositions and use” (Imperial Chemical Industries Limited, priority 1978, dated 1981).

As a reminder, the inhibition is the share of the control response that was lost under treatment.

In brackets after ≈: the same amount, converted by molar mass.

One experiment deals with methane production from ruminal fluid. The experiment is described as follows: in vitro assay of inhibition of methane production from ruminal fluid. The format is cell-based, steers (pooled rumen fluid). As to conditions: at 1 μg./ml.; in vitro rumen fluid, 39° C., 15-16 hours. Here is the method: Rumen fluid is collected on a regular routine basis from two steers, which are fed on the same hay-plus-concentrate diet. Sampling time is standardised as far as possible, and the fluid from the two animals is pooled on a 50/50 basis. Large particulate matter is removed by filtering the pooled fluid through four layers of muslin cloth. The filtrate is then diluted in the ratio of one volume of filtrate to three volumes of an artificial rumen fluid (prepared as described by G. L. Bales et al., Journal of Dairy Science, 1976, volume 59, page 1850, but omitting acetic acid), and the pH of the mixture is adjusted to 6.9-7.0 with saturated aqueous sodium carbonate solution. Aliquots (50 ml.) of this mixture are dispensed into 100 ml. conical flasks containing dried ground hay (0.5 g.), and each flask is used to test a test compound at a particular concentration.
The test compound is added to the conical flask as a solution in ethanol, the flask is flushed with carbon dioxide gas, stoppered with a suba-seal, and incubated at 39° C. for 15-16 hours. After one hour, a narrow bore needle is inserted through the suba-seal to relieve the gas pressure, and the needle is withdrawn 30 minutes before the incubation is ended. Fermentation is then stopped by placing the flask in ice, and after 15 minutes cooling, the gas over the liquid is analysed for methane by gas chromatography, and the concentration of the test compound required to produce a 50% reduction in methane production (ED50 in μg./ml.) is calculated.
The test of methane inhibition described in Example 12 was repeated for various other compounds, to give the results shown below. The results are expressed as the percentage inhibition of methane production caused by 1 μg./ml. of a test compound, except for those compounds indicated by *, for which 3 μg./ml. was used.
In turn, `Cc1ccc(S(=O)(=O)Nc2ccc3c(c2)C(=O)NC(C(Cl)(Cl)Cl)O3)cc1` (stereo not drawn) [3,4-dihydro-6-tosylamino-2-trichloromethyl-2H-benzo[e]-[1,3]-oxazin-4-one] displayed an inhibition at 1 µg/mL of 94%.

In the case of `O=C(O)c1cc(C(=O)O)c2c(c1)C(=O)NC(C(Cl)(Cl)Cl)O2` (stereo not drawn) [drawing 8; R1=COOH; R3=COOH; R5=H, 3,4-dihydro-4-oxo-2-trichloromethyl-2H-benzo[e]-[1,3]-oxazine-6,8-dicarboxylic acid], the inhibition at 1 µg/mL came out at 38%.

Consider `CC(=O)Nc1ccc2c(c1)C(=O)NC(C(Cl)(Cl)Cl)O2` (stereo not drawn) [drawing 8; R1=H; R3=CH3 CONH; R5=H, 6-acetamido-3,4-dihydro-2-trichloromethyl-2H-benzo[e]-[1,3]-oxazin-4-one], for which testing at 1 µg/mL gave an inhibition of 96%.

Consider `O=Cc1ccc2c(c1)C(=O)NC(C(Cl)(Cl)Cl)O2` (stereo not drawn) [drawing 8; R1=H; R3=CHO; R5=H], for which the inhibition at 1 µg/mL came to 47%.

The experiment is the same for the next values; noted with them: at 3 μg./ml.; in vitro rumen fluid, 39° C., 15-16 hours; read-out: % Methane Inhibition (compounds indicated by *).
Regarding `O=C1NC(C(Cl)(Cl)Cl)Oc2ccc(NCc3ccc(Cl)cc3)cc21` (stereo not drawn) [6-p-chlorobenzylamino-3,4-dihydro-2-tichloromethyl-2H-benzo[e]-[1,3]-oxazin-4l-one], the inhibition at 3 µg/mL was 86%.

Still in this experiment, the particulars now being: in vitro, diluted rumen fluid with dried ground hay, pH 6.9-7.0, 39° C., 15-16 hours; read-out: ED50, concentration of the test compound required to produce a 50% reduction in methane production.
For `O=C1NC(C(Cl)(Cl)Cl)Nc2ccc(Cl)cc21` (stereo not drawn) [drawing 5; R3=Cl; R5=H; R6=H], the IC50 came out at 0.3 mg/L (≈ 1 µM).

As to `CN1C(=O)c2ccccc2N(C)C1C(Cl)(Cl)Cl` (stereo not drawn) [drawing 5; R3=H; R5=CH3; R6=CH3], the IC50 worked out at 1 mg/L (≈ 3.41 µM).

Turning to `CN1C(=O)c2ccccc2NC1C(Cl)(Cl)Cl` (stereo not drawn) [drawing 5; R3=H; R5=CH3; R6=H], the IC50 turned out to be 1 mg/L (≈ 3.58 µM).

For `CN1c2ccccc2C(=O)NC1C(Cl)(Cl)Cl` (stereo not drawn) [drawing 5; R3=H; R5=H; R6=CH3], the IC50 worked out at 0.3 mg/L (≈ 1.07 µM).

Consider `O=C1NC(C(Cl)(Cl)Cl)Nc2ccccc21` (stereo not drawn) [drawing 5; R3=H; R5=H; R6=H, 1,2-dihydro-2-trichloromethylquinazolin-4-one], for which the IC50 was found to be 0.3 mg/L (≈ 1.13 µM).

With `O=C1NC(C(Cl)(Cl)Cl)Nc2ccc([N+](=O)[O-])cc21` (stereo not drawn) [drawing 5; R3=NO2; R5=H; R6=H, 1,2-dihydro-6-nitro-2-trichloromethylquinazolin-4-one], the IC50 was determined as 3 mg/L (≈ 9.66 µM).

For the compound `CCN(CC)C(=O)c1ccc2c(c1)C(=O)NC(C(Cl)(Cl)Cl)O2` (stereo not drawn) [drawing 6; R3=(C2 H5)2 N . CO; R5=H, 3,4-dihydro-N,N-diethyl-4-oxo-2-trichloromethyl-2H-benzo[e]-[1,3]-oxazine-6-carboxamide], the IC50 is 0.3 mg/L (≈ 0.82 µM).

Consider `O=C1NC(C(Cl)(Cl)Cl)Oc2ccc(Br)cc21` (stereo not drawn) [drawing 6; R3=Br; R5=H], for which the IC50 is 0.5 mg/L (≈ 1.45 µM).

In the case of `CCC(=O)Oc1ccc2c(c1)C(=O)N(C(=O)CC)C(C(Cl)(Cl)Cl)O2` (stereo not drawn) [drawing 6; R3=C2 H5 CO . O; R5=C2 H5 CO, 3,4-dihydro-3-propionyl-6-propionyloxy-2-trichloromethyl-2H-benzo[e]-[1,3]-oxazin-4-one], the IC50 is 0.3 mg/L (≈ 0.76 µM).

On to `CCC(=O)Oc1ccc2c(c1)C(=O)NC(C(Cl)(Cl)Cl)O2` (stereo not drawn) [drawing 6; R3=C2 H5 CO . O; R5=H, 3,4-dihydro-6-propionyloxy-2-trichloromethyl-2H-benzo[e]-[1,3]-oxazin-4-one], for which the IC50 is 0.3 mg/L (≈ 0.886 µM).

As to `O=C1NC(C(Cl)(Cl)Cl)Oc2ccc(OCc3ccccc3)cc21` (stereo not drawn) [drawing 6; R3=C6 H5 . CH2 O; R5=H, 6-benzyloxy-3,4-dihydro-2-trichloromethyl-2H-benzo[e]-[1,3]-oxazin-4-one], the IC50 amounted to 10 mg/L (≈ 26.8 µM).

Regarding `CCCNC(=O)c1ccc2c(c1)C(=O)NC(C(Cl)(Cl)Cl)O2` (stereo not drawn) [drawing 6; R3=CH3 (CH2)2 NH . CO; R5=H, 3,4-dihydro-4-oxo-N-propyl-2-trichloromethyl-2H-benzo[e]-[1,3]-oxazine-6-carboxamide], the IC50 was 0.3 mg/L (≈ 0.853 µM).

As for `CCCCOC(=O)c1ccc2c(c1)C(=O)NC(C(Cl)(Cl)Cl)O2` (stereo not drawn) [drawing 6; R3=CH3 (CH2)3 O . CO; R5=H, butyl 3,4-dihydro-4-oxo-2-trichloromethyl-2H-benzo[e]-[1,3]-oxazine-6-carboxylate], the IC50 was 1 mg/L (≈ 2.73 µM).

For `CCCCOc1ccc2c(c1)C(=O)NC(C(Cl)(Cl)Cl)O2` (stereo not drawn) [drawing 6; R3=CH3 (CH2)3 O; R5=H, 6-butyloxy-3,4-dihydro-2-trichloromethyl-2H-benzo[e]-[1,3]-oxazin-4-one], the IC50 was found to be 3 mg/L (≈ 8.86 µM).

On to `CC(=O)Oc1ccc2c(c1)C(=O)N(C(C)=O)C(C(Cl)(Cl)Cl)O2` (stereo not drawn) [drawing 6; R3=CH3 CO . O; R5=CH3 CO, 6-acetoxy-3-acetyl-3,4-dihydro-2-trichloromethyl-2H-benzo[e]-[1,3]-oxazin-4-one], for which the IC50 stood at 1 mg/L (≈ 2.73 µM).

As to `CC(=O)Oc1ccc2c(c1)C(=O)NC(C(Cl)(Cl)Cl)O2` (stereo not drawn) [drawing 6; R3=CH3 CO . O; R5=H, 6-acetoxy-3,4-dihydro-2-trichloromethyl-2H-benzo[e]-[1,3]-oxazin-4-one], the IC50 worked out at 0.3 mg/L (≈ 0.924 µM).

On to `COC(=O)c1ccc2c(c1)C(=O)NC(C(Cl)(Cl)Cl)O2` (stereo not drawn) [drawing 6; R3=CH3 O . CO; R5=H, methyl 3,4-dihydro-4-oxo-2-trichloromethyl-2H-benzo[e]-[1,3]-oxazine-6-carboxylate], for which the IC50 came out at 3 mg/L (≈ 9.24 µM).

With `COc1ccc2c(c1)C(=O)N(C)C(C(Cl)(Cl)Cl)O2` (stereo not drawn) [drawing 6; R3=CH3 O; R5=CH3, 3,4-dihydro-6-methoxy-3-methyl-2-trichloromethyl-2H-benzo[e]-[1,3]-oxazin-4-one], the IC50 was 3 mg/L (≈ 9.66 µM).

`COc1ccc2c(c1)C(=O)NC(C(Cl)(Cl)Cl)O2` (stereo not drawn) [drawing 6; R3=CH3 O; R5=H, 3,4-dihydro-6-methoxy-2-trichloromethyl-2H-benzo[e]-[1,3]-oxazin-4-one]: the IC50 came to 0.5 mg/L (≈ 1.69 µM).

On to `Cc1ccc2c(c1)C(=O)NC(C(Cl)(Cl)Cl)O2` (stereo not drawn) [drawing 6; R3=CH3; R5=H], for which the IC50 is 1 mg/L (≈ 3.56 µM).

Take `CC(=O)N1C(=O)c2ccccc2OC1C(Cl)(Cl)Cl` (stereo not drawn) [drawing 6; R3=H; R5=CH3 CO, 3-acetyl-3,4-dihydro-2-trichloromethyl-2H-benzo[e]-[1,3]-oxazin-4-one]: the IC50 is 1 mg/L (≈ 3.24 µM).

For the compound `O=C1NC(C(Cl)(Cl)Cl)Oc2ccccc21` (stereo not drawn) [drawing 6; R3=H; R5=H, 3,4-dihydro-2-trichloromethyl-2H-benzo[e]-[1,3]-oxazin-4-one], the IC50 came out at 0.5 mg/L (≈ 1.88 µM).

Consider `O=CN1C(=O)c2ccccc2OC1C(Cl)(Cl)Cl` (stereo not drawn) [drawing 6; R3=H; R5=HCO, 3-formyl-3,4-dihydro-2-trichloromethyl-2H-benzo[e]-[1,3]-oxazin-4-one], for which the IC50 is 0.5 mg/L (≈ 1.7 µM).

Regarding `O=C(O)c1ccc2c(c1)C(=O)NC(C(Cl)(Cl)Cl)O2` (stereo not drawn) [drawing 6; R3=HO . CO; R5=H, 3,4-dihydro-4-oxo-2-trichloromethyl-2H-benzo[e]-[1,3]-oxazine-6-carboxylicacid], the IC50 was 0.3 mg/L (≈ 0.966 µM).

`O=C1NC(C(Cl)(Cl)Cl)Oc2ccc(O)cc21` (stereo not drawn) [drawing 6; R3=HO; R5=H, 3,4-dihydro-6-hydroxy-2-trichloromethyl-2H-benzo[e]-[1,3]-oxazin-4-one]: the IC50 amounted to 0.5 mg/L (≈ 1.77 µM).

As to `NC(=O)c1ccc2c(c1)C(=O)NC(C(Cl)(Cl)Cl)O2` (stereo not drawn) [drawing 6; R3=NH2 CO; R5=H, 3,4-dihydro-4-oxo-2-trichloromethyl-2H-benzo[e]-[1,3]-oxazine-6-carboxamide], the IC50 stood at 0.3 mg/L (≈ 0.969 µM).

Consider `O=C1NC(C(Cl)(Cl)Cl)Oc2ccc([N+](=O)[O-])cc21` (stereo not drawn) [drawing 6; R3=NO2; R5=H], for which the IC50 came to 1 mg/L (≈ 3.21 µM).

Regarding `O=C(Oc1ccc2c(c1)C(=O)NC(C(Cl)(Cl)Cl)O2)c1ccc(Cl)cc1` (stereo not drawn) [drawing 6; R3=p-Cl . C6 H4 CO . O; R5=H, 6-p-chlorobenzoyloxy-3,4-dihydro-2-trichloromethyl-2H-benzo[e]-[1,3]-oxazin-4-one], the IC50 was 1 mg/L (≈ 2.37 µM).

In the case of `COc1ccc2c(c1)COC(C(Cl)(Cl)Cl)N2` (stereo not drawn) [drawing 7; R3=CH3 O, 1,2-dihydro-6-methoxy-2-trichloromethyl-4H-benzo[d]-[1,3]-oxazine], the IC50 was found to be 0.3 mg/L (≈ 1.06 µM).

Consider `Cc1ccc2c(c1)COC(C(Cl)(Cl)Cl)N2` (stereo not drawn) [drawing 7; R3=CH3, 1,2-dihydro-6-methyl-2-trichloromethyl-4H-benzo[d]-[1,3]oxazine], for which the IC50 is 3 mg/L (≈ 11.3 µM).

Take `N#Cc1ccc2c(c1)COC(C(Cl)(Cl)Cl)N2` (stereo not drawn) [drawing 7; R3=CN, 1,2-dihydro-2-trichloromethyl-4H-benzo[d]-[1,3]-oxazine-6-carbonitrile]: the IC50 came out at 0.3 mg/L (≈ 1.08 µM).

As for `ClC(Cl)(Cl)C1Nc2ccccc2CO1` (stereo not drawn) [drawing 7; R3=H, 1,2-dihydro-2-trichloromethyl-4H-benzo[d]-[1,3]-oxazine], the IC50 came to 1 mg/L (≈ 3.96 µM).

Take `ClC(Cl)(Cl)C1Nc2ccc(I)cc2CO1` (stereo not drawn) [drawing 7; R3=I]: the IC50 came to 1 mg/L (≈ 2.64 µM).

Take `O=[N+]([O-])c1ccc2c(c1)COC(C(Cl)(Cl)Cl)N2` (stereo not drawn) [drawing 7; R3=NO2, 1,2-dihydro-6-nitro-2-trichloromethyl-4H-benzo[d]-[1,3]oxazine]: the IC50 came to 0.5 mg/L (≈ 1.68 µM).
